The values below come from patent publication US5545639A, “Method of inhibiting transformed cells” (The United States of America as represented by the …, priority 1994, dated 1996).

Some results are limits rather than exact numbers.

For one test, the system named is DMS 273. Put plainly: Dose response of growth, tumor cell line. The format is cell-based. To be noted: Homo sapiens; DMS 273, small cell lung cancer; read-out: 50% Loss (50% kill).
In another test the test system is DMS 114. Briefly: Dose response of growth, tumor cell line. The following applies: Homo sapiens; DMS 114, small cell lung cancer; read-out: 50% Loss (50% kill). It counts as cell-based. As for the experimental part: Indeed, 70% of the cell lines were shown not only to experience precluded growth, but cell death, when exposed to less then 100 μM of the active ingredient.

For the molecule `ClCc1ccc2ccc3ccc(CCl)nc3c2n1` [2,9-bis(chloromethyl)-1,10-phenanthroline], the CC50 in the test on DMS 273 was > 100 µM; with DMS 114, 7.72 µM.
